Reference: the NIST ThermoML archive (doi:10.1016/j.tca.2011.10.010)

Test: xn = mol fraction of the nth substance listed
Conditions: 101 kPa, Liquid, Vibrating tube method

CCN(CC)CCO.Cl [2-(diethylamino)ethanol hydrochloride] + OCCO
mass density [kg/m3]
Conditions | x1 = 0.2 | x1 = 0.25 | x1 = 0.33
298.15 K | 1103.7 | – | 1099.5
303.15 K | 1100.4 | 1098.6 | 1096.5
308.15 K | 1097.3 | – | 1093.3
313.15 K | 1094.2 | 1092.6 | 1090.3
318.15 K | 1091 | – | 1087.1
323.15 K | 1087.7 | 1086.2 | 1084
328.15 K | 1084.6 | – | 1080.9
333.15 K | 1081.5 | 1079.7 | 1077.8
338.15 K | 1078.2 | – | 1074.8
343.15 K | 1075 | 1074 | 1071.7
348.15 K | 1071.8 | – | 1068.6
353.15 K | 1068.3 | 1067.5 | 1065.5
358.15 K | 1065.4 | – | 1062.4
363.15 K | 1062.2 | 1060 | 1059
368.15 K | 1059 | – | 1056.2

C[N+](C)(C)CCO.[Cl-] [choline chloride] + OCCO
mass density [kg/m3]
Conditions | x1 = 0.28 | x1 = 0.33 | x1 = 0.36
298.15 K | 1117 | – | 1118
303.15 K | 1114.1 | 1114.6 | 1115.6
308.15 K | 1111.1 | – | 1112.2
313.15 K | 1108.2 | 1108.8 | 1109.7
318.15 K | 1105.2 | – | 1106.4
323.15 K | 1102.3 | 1103.6 | 1103.7
328.15 K | 1099.3 | – | 1100.6
333.15 K | 1096.2 | 1097.4 | 1096.8
338.15 K | 1093.4 | – | 1094.8
343.15 K | 1090.4 | 1091.6 | 1091
348.15 K | 1087.5 | – | 1089
353.15 K | 1084.7 | 1085.4 | 1087
358.15 K | 1081.6 | – | 1083.2
363.15 K | 1078.8 | 1079.1 | 1082
368.15 K | 1075.7 | – | 1077.4

C[P+](c1ccccc1)(c1ccccc1)c1ccccc1.[Br-] [methyltriphenylphosphonium bromide] + OCC(O)CO
mass density [kg/m3]
Conditions | x1 = 0.2 | x1 = 0.25 | x1 = 0.33
298.15 K | 1288.9 | 1297.6 | –
303.15 K | 1285.5 | 1294.5 | 1303
308.15 K | 1281.7 | 1290.6 | –
313.15 K | 1278 | 1287 | 1295.2
318.15 K | 1274.5 | 1283.6 | –
323.15 K | 1271 | 1280.9 | 1288.6
328.15 K | 1267.3 | 1276.6 | –
333.15 K | 1263.4 | 1273.6 | 1281.7
338.15 K | 1260.1 | 1269.6 | –
343.15 K | 1256.8 | 1266 | 1274.9
348.15 K | 1252.9 | 1262.6 | –
353.15 K | 1249.5 | 1259.3 | 1268.2
358.15 K | 1245.7 | 1255.6 | –
363.15 K | 1242.3 | 1252.4 | 1261.5
368.15 K | 1238.5 | 1248.6 | –
